Reference: ChEMBL document CHEMBL5352449, “Exploration and biological evaluation of 7-methoxy-3-methyl-1H-chromeno[4,3-c]pyrazol-4-one as an activating transcription factor 3 inducer for managing metabolic syndrome” (Eur J Med Chem, 2023)
The source made the active and inactive calls. The rule behind the calls is not given here.

Key:
[1] = Induction of AFT3 gene expression in mouse 3T3-L1 cells assessed as relative gene expression level at 50 uM incubated for 8 days by real time-PCR analysis (reference value: 1.00); format: functional; conditions: time 8 day
[2] = Inhibition of high fat diet induced metabolic disturbance in C57BL/6 mouse model assessed as reduction in body weight at 40 mg/kg, ip administered 3 times weekly for 10 weeks (reference value: 34.86 +/-[…]); format: functional
Mus musculus [3] = experiment: Protection against hyperlipidemia in high fat diet-fed C57BL/6 mouse model assessed as reduction in hypo-triglyceridemic level at 40 mg/kg administered thrice weekly; format: functional, organism-based
Mus musculus [4] = species: Mus musculus; experiment: Anti-hyperglycemic activity in 16 hrs overnight fasted high fat diet induced C57BL/6 mouse assessed as reduction in glucose intolerance measured at upto 120 mins; format: functional, organism-based
3T3-L1 [5] = experiment: Induction of AFT3 expression in mouse 3T3-L1 cells at 50 to 100 uM incubated for 6 days by Western blot analysis; format: functional, cell-based; conditions: dose 50-100 µM, time 6.0 day
Mus musculus [6] = experiment: Inhibition of high fat diet induced metabolic disturbance in C57BL/6 mouse model assessed as reduction in inguinal white adipose tissue weight at 40 mg/kg, ip; format: functional, organism-based
Mus musculus [7] = experiment: Inhibition of high fat diet induced metabolic disturbance in C57BL/6 mouse model assessed as reduction in […] adipose tissue weight at 40 mg/kg, ip; format: functional, organism-based
Mus musculus [8] = experiment: Hepatoprotective activity in high fat diet induced C57BL/6 mouse assessed as reduction in GPT level at 40 mg/kg administered thrice weekly; format: functional, organism-based
Mus musculus [9] = experiment: Inhibition of high fat diet induced metabolic disturbance in C57BL/6 mouse model assessed as reduction in epididymal white adipose tissue weight at 40 mg/kg, ip; format: functional, organism-based
Mus musculus [10] = species: Mus musculus; experiment: Inhibition of high fat diet induced metabolic disturbance in C57BL/6 mouse model assessed as reduction in hypertrophic eWAT adipocytes by H and E staining based analysis; format: functional, cell-based
Mus musculus [11] = species: Mus musculus; experiment: Anti-hyperglycemic activity in 16 hrs overnight fasted high fat diet induced C57BL/6 mouse assessed as reduction in insulin resistance measured at upto 120 mins; format: functional, organism-based
[12] = (§1) Cytotoxicity against mouse 3T3-L1 adipocytes assessed as reduction in cell viability; format: toxicity, cell-based; conditions: 3T3-L1 adipocytes
Mus musculus [13] = experiment: Hepatoprotective activity in high fat diet induced C57BL/6 mouse assessed as reduction in GOT level at 40 mg/kg administered thrice weekly; format: functional, organism-based
Mus musculus [14] = experiment: Inhibition of high fat diet induced metabolic disturbance in C57BL/6 mouse model assessed as reduction in size of epididymal white adipose tissue at 40 mg/kg, ip; format: functional, organism-based
Mus musculus [15] = species: Mus musculus; experiment: Inhibition of high fat diet induced metabolic disturbance in C57BL/6 mouse model assessed as reduction in hypertrophic iWAT adipocytes by H and E staining based analysis; format: functional, cell-based
Mus musculus [16] = experiment: Reduction in hepatic steatosis in high fat diet induced metabolic disturbance in C57BL/6 mouse model at 40 mg/kg, ip by hematoxylin and eosin staining based assay; format: functional, organism-based
Mus musculus [17] = experiment: Protection against hyperlipidemia in high fat diet-fed C57BL/6 mouse model assessed as reduction in total plasma cholesterol level at 40 mg/kg administered thrice weekly; format: functional, organism-based
3T3-L1 [18] = experiment: as §1; format: toxicity, cell-based; conditions: 3t3-l1
3T3-L1 [19] = experiment: Downregulation of lipid accumulation in mouse 3T3-L1 pre-adipocyte model at 50 to 100 uM incubated for […] by Oil Red O staining based analysis; format: functional, cell-based; conditions: dose 50-100 µM

| Structure (SMILES) | Activity [1] | other results |
| --- | --- | --- |
| O=c1oc2cc(OCc3ccncc3)ccc2c2occ(C(F)(F)F)c12 | 1.23 | – |
| COc1ccc2c(c1)oc(=O)c1c(C3CC3)coc12 | 1.96 | – |
| O=c1oc2cc(Br)ccc2c2c1C(O)(C(F)(F)F)CO2 (centres undefined) | 1.08 | – |
| O=c1oc2c3ccccc3ccc2c2occ(C(F)(F)F)c12 | 1.44 | – |
| Cc1n[nH]c2c1c(=O)oc1c3ccccc3ccc21 | 1.84 | – |
| COc1cccc2oc(=O)c3c(C)n[nH]c3c12 | 0.98 | – |
| Cc1ccc2c(c1)oc(=O)c1c(C)n[nH]c12 | 1.38 | – |
| Cn1ncc2c3ccc4ccccc4c3oc(=O)c21 | 1.44 | – |
| Cc1n[nH]c2c1c(=O)oc1cc(F)ccc12 | 1.46 | – |
| O=c1oc2cc(O)ccc2c2occ(C(F)(F)F)c12 | 1.4 | – |
| Cc1n[nH]c2c1c(=O)oc1cc(Br)ccc12 | 2.12 | – |
| O=c1oc2c3ccccc3ccc2c2[nH]nc(C(F)(F)F)c12 | 1.62 | – |
| O=c1oc2c3ccccc3ccc2c2occ(CO)c12 | 1.39 | – |
| COc1ccc2c3c(c(=O)oc2c1)C(O)(C(F)(F)F)CO3 (centres undefined) | 1.39 | – |
| Cc1coc2c1c(=O)oc1c3ccccc3ccc21 | 1.94 | – |
| Cc1coc2c1c(=O)oc1cc(Br)ccc12 | 1.28 | – |

| Structure (SMILES) | Activity [1] | other results |
| --- | --- | --- |
| COc1ccc2c(c1)oc(=O)c1c(C)n[nH]c12 | 4.29 | Activity [2]: 30 g; Activity (Mus musculus [3]): Active; Activity (Mus musculus [4]): Active; Activity (3T3-L1 [5]): Active; inhibition (Mus musculus [6]): Active; inhibition (Mus musculus [7]): Active; Activity (Mus musculus [8]): Active; inhibition (Mus musculus [9]): Active; inhibition (Mus musculus [10]): Active; Activity (Mus musculus [11]): Active; CC50 [12]: > 100 µM; Activity (Mus musculus [13]): inactive; inhibition (Mus musculus [14]): Active; inhibition (Mus musculus [15]): Active; Activity (Mus musculus [16]): Active; Activity (Mus musculus [17]): Active |
| COc1cccc2c1oc(=O)c1c(C(F)(F)F)n[nH]c12 | 1.81 | – |
| O=c1oc2cc(O)ccc2c2c1C(O)(C(F)(F)F)CO2 (centres undefined) | 0.99 | – |
| COc1ccc2c(c1)oc(=O)c1c(C(F)(F)F)coc12 | 2.8 | – |
| O=c1oc2c3ccccc3ccc2c2occ(C3CC3)c12 | 2.92 | – |
| O=c1oc2cc(Br)ccc2c2[nH]nc(C(F)(F)F)c12 | 7.31 | Activity (3T3-L1 [18]): Toxic |
| COc1ccc2c(c1)oc(=O)c1c(C(F)(F)F)n[nH]c12 | 1.55 | – |
| COc1ccc(-c2n[nH]c(C)c2C(=O)O)c(O)c1 | 1.07 | – |
| COc1cccc2c1oc(=O)c1c(C)n[nH]c12 | 4.78 | Activity (3T3-L1 [19]): Active; Activity (3T3-L1 [5]): Active; CC50 [12]: > 100 µM |
| COc1ccc2c(c1)oc(=O)c1c(C)onc12 | 1.62 | – |
| CC1(C)Oc2c(c(=O)oc3c2ccc2ccccc23)C1(C)C | 3.22 | – |
| O=c1oc2c(ccc3ccccc32)c2c1C(O)(C(F)(F)F)CO2 (centres undefined) | 2.19 | – |
| O=C(O)c1coc2c1c(=O)oc1c3ccccc3ccc21 | 1.06 | – |
| Cc1[nH]nc(-c2ccc3ccccc3c2O)c1C(=O)O | 1.2 | – |
| OCc1c(C(F)(F)F)coc1-c1ccc2ccccc2c1O | 1.41 | – |
| C[C@@H]1c2c(c3ccc4ccccc4c3oc2=O)O[C@@H]1C | 2.1 | Activity [2]: 30.5 g; Activity (Mus musculus [4]): Active; inhibition (Mus musculus [6]): Active; inhibition (Mus musculus [7]): Active; Activity (Mus musculus [8]): inactive; inhibition (Mus musculus [9]): Active; inhibition (Mus musculus [10]): Active; Activity (Mus musculus [11]): Active; Activity (Mus musculus [13]): inactive; inhibition (Mus musculus [14]): Active; inhibition (Mus musculus [15]): Active; Activity (Mus musculus [17]): Active |
